The numbers were not newly measured in US20030111427A1, “Composition for controlling the dissolving rate of solid sanitizers” (Arch Chemicals, Inc., priority 2001, published 2003), which cites them from elsewhere.

For the series the following is noted: at 30° C.

On to `[Ca+2].[O-]Cl.[O-]Cl` [calcium hypochlorite], for which the “time for all of the calcium hypochlorite to dissolve” value (21.6 grams in 100 grams of water) is on record as “less than 5 minutes”. Also, where the note is “in 100 grams of water”, the “amount that dissolves in 100 grams of water” value is recorded as “about 21.6 grams”.
